Test [1] deals with B16 cell line. The test can be described thus: Apoptosis by DNA flow cytometric analysis (propidium iodide). In kind it is cell-based, murine. The note with it: propidium iodide flow cytometry. As to the method: Apoptosis was assessed by DNA flow cytometric analysis. At each concentration of SCV-07, adherent cells were detached from the plates by trypsinization, pooled with the floating cells and fixed with 50% acetone:methanol 1:4 in PBS. The cells were suspended (1×10^6/ml) in PBS containing 50 μg/ml of propidium iodide (PI) and 100 KU/ml of RNase and incubated in the dark at room temperature for 30 min. The DNA content per cell was evaluated by PI fluorescence measured on a linear scale using a FACScan flow cytometer (Becton & Dickinson, San Jose, Calif.). Apoptotic cells show a diminished staining, in the red fluorescence channel, below the G0/G1 population of normal diploid cells, and are represented by a broad hypodiploid peak due to DNA fragmentation following apoptotic events. This is easily distinguishable from the narrow peak of cells with diploid DNA content. The fraction of apoptotic cells was therefore calculated by integrating the pre-G1 peak.

The conditions of test [2]: 5-FU-immune-suppressed animals; immunization with sheep red blood cells; cited from earlier work.

For the compound `N[C@H](CCC(=O)N[C@@H](Cc1c[nH]c2ccccc12)C(=O)O)C(=O)O` [SCV-07, γ-D-glutamyl-L-tryptophan], the “percentage of apoptotic cell death” value in test [1] was “could not evidence any significant effect”. In addition, the immunostimulatory effect entry in test [2] is reported as “strong immunostimulatory effect”.

The values are drawn from patent publication US8163702B2, “Treatment of melanoma” (SciClone Pharmaceuticals, Inc., priority 2006, dated 2012).
